Source: ChEMBL document CHEMBL1151791, “Derivatives of 1,4-bis(3-hydroxycarbonyl-4-hydroxyl)styrylbenzene as PTP1B inhibitors with hypoglycemic activity” (Bioorg Med Chem, 2008)
Activity calls are given as the source filed them. No cut-off for these calls is given here.

Assays:
[1] = target: T1, Tyrosine-protein phosphatase non-receptor type 1 (Homo sapiens, UniProt P18031); assay: Inhibition of PTP1B
T1 sequence (P18031 whole entry): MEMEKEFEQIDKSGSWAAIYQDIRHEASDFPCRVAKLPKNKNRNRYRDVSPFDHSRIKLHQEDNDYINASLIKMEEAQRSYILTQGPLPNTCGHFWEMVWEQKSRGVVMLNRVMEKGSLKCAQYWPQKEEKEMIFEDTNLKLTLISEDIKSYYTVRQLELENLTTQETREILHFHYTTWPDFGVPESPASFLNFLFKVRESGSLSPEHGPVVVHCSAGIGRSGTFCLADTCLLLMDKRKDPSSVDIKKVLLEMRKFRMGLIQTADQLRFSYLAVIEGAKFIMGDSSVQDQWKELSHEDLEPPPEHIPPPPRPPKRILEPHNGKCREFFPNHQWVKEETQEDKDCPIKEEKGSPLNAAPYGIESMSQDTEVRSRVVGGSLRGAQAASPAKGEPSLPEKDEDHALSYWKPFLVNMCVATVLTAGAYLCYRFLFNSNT

[2] = Inhibition of PTP LAR-D1
[3] = Inhibition of YPTP1
[4] = target: Tyrosine-protein phosphatase non-receptor type 6 (Homo sapiens, UniProt P29350); assay: Inhibition of PTP SHP1
[5] = Inhibition of PTP YOP
[6] = target: T2, Tyrosine-protein phosphatase non-receptor type 2 (Homo sapiens, UniProt P17706); assay: Inhibition of TC-PTP
T2 sequence (P17706 whole entry): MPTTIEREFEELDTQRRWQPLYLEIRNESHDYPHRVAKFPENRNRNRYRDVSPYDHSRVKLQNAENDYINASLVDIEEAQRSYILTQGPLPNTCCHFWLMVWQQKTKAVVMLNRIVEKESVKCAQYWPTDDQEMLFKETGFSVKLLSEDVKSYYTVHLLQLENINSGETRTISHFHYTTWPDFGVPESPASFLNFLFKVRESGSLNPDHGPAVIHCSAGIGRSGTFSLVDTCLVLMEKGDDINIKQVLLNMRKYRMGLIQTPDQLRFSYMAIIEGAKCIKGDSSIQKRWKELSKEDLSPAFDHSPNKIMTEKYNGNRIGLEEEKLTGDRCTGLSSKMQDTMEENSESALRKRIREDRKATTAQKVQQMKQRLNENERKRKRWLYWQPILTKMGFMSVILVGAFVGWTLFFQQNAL

[7] = system: Mus musculus; assay: Normalization of blood glucose level in high fat diet fed C57BL/6J Jms Slc mouse at 160 mg/day/kg administered with diet; format: functional, organism-based
[8] = system: Mus musculus; assay: Reduction in blood glucose level in high fat diet fed C57BL/6J Jms Slc mouse at 160 mg/day/kg administered with diet measured after 27 days; format: functional, organism-based
[9] = system: Mus musculus; assay: Toxicity in lungs of high fat diet fed mouse C57BL/6J Jms Slc at 160 mg/day/kg for 4 weeks administered with diet; format: organism-based, Lung; settings: in vivo, po, 672 h
[10] = system: Mus musculus; assay: Toxicity in kidney of high fat diet fed C57BL/6J Jms Slc mouse at 160 mg/day/kg for 4 weeks administered with diet; format: organism-based; settings: in vivo, po, 672 h
[11] = system: Mus musculus; assay: Toxicity in liver of high fat diet fed C57BL/6J Jms Slc mouse at 160 mg/day/kg for 4 weeks administered with diet; format: organism-based; settings: in vivo, po, 672 h

Chain of Tyrosine-protein phosphatase non-receptor type 6 (P29350 whole entry): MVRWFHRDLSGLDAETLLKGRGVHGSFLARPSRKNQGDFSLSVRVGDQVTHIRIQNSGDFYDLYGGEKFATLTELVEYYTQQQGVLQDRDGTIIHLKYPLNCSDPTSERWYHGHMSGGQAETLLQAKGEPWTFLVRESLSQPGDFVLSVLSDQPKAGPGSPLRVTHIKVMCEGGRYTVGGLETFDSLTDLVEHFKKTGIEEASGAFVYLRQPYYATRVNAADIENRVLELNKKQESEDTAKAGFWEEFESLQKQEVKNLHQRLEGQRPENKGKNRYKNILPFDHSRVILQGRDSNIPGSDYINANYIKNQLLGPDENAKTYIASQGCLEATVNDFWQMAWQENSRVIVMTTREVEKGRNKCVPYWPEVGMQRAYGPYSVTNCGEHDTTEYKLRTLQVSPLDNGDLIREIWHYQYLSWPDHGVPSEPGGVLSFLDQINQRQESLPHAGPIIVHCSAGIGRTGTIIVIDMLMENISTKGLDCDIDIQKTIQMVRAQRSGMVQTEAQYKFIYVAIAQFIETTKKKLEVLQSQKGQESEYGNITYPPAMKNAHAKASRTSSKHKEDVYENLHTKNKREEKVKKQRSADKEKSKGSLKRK

Row | IC50 [1] | IC50 [2] | IC50 [3] | IC50 [4] | IC50 [5] | IC50 [6] | SMILES | Activity [7] | Activity [8] | Activity [9] | Activity [10] | Activity [11]
1 | 64 µM |  |  |  |  |  | O=C(O)c1ccc(/C=C/c2cc(Br)c(O)c(C(=O)O)c2)cc1O |  |  |  |  | 
2 | 194 µM |  |  |  |  |  | COc1c(C(=O)O)cc(/C=C/c2ccc(C(=O)O)c(O)c2)cc1-c1ccco1 |  |  |  |  | 
3 |  | > 2000 µM | 86 µM |  |  |  | O=C(O)c1cc(-c2ccccc2)cc(Cc2cc(-c3ccccc3)cc(C(=O)O)c2O)c1O |  |  |  |  | 
4 |  | > 2000 µM | 234 µM |  |  |  | O=C(O)c1cc(Cc2cc(C(=O)O)c(O)c(-c3ccccc3)c2)cc(-c2ccccc2)c1O |  |  |  |  | 
5 | > 1000 µM |  |  |  |  |  | Oc1ccc(/C=C/c2cc(O)cc(O)c2)cc1 [RESVERATROL] |  |  |  |  | 
6 | 34 µM | > 2000 µM | 114 µM | 126 µM | 61 µM | 234 µM | O=C(O)c1cc(/C=C/c2ccccc2)ccc1O |  |  |  |  | 
7 | 4 µM | 162 µM | 10 µM | 6 µM | 5 µM | 11 µM | COc1cc(/C=C/c2cc(C(=O)O)c(O)c(-c3ccco3)c2)ccc1/C=C/c1cc(C(=O)O)c(O)c(-c2ccco2)c1 |  |  |  |  | 
8 | 32 µM | > 2000 µM | 370 µM | 231 µM | 175 µM | 567 µM | O=C(O)c1ccc(/C=C/c2ccc(O)c(C(=O)O)c2)cc1O |  |  |  |  | 
9 | 13 µM | > 1000 µM | 59 µM | 78 µM | 44 µM | 173 µM | O=C(O)c1cc(/C=C/c2ccccc2)cc(-c2ccccc2)c1O |  |  |  |  | 
10 | 30 µM | > 1000 µM | 153 µM | 140 µM | 91 µM | 173 µM | O=C(O)c1cc(/C=C/c2ccccc2)cc(Br)c1O |  |  |  |  | 
11 | 3 µM | > 300 µM | 13 µM | 15 µM | 10 µM | 37 µM | O=C(O)c1cc(/C=C/c2ccc(/C=C/c3cc(Br)c(O)c(C(=O)O)c3)cc2)cc(Br)c1O | Active | Active | Non-toxic | Non-toxic | Non-toxic
12 | 6 µM | 420 µM | 21 µM | 10 µM | 12 µM | 32 µM | COc1cc(/C=C/c2cc(Br)c(O)c(C(=O)O)c2)ccc1/C=C/c1cc(Br)c(O)c(C(=O)O)c1 |  |  |  |  | 
13 | 0.53 µM | > 200 µM | 7 µM | 6 µM | 5 µM | 8 µM | O=C(O)c1cc(/C=C/c2ccc(/C=C/c3cc(C(=O)O)c(O)c(-c4ccco4)c3)cc2)cc(-c2ccco2)c1O |  |  |  |  | 
14 | 5 µM | 413 µM | 20 µM | 19 µM | 13 µM | 27 µM | O=C(O)c1cc(/C=C/c2ccc(/C=C/c3ccc(O)c(C(=O)O)c3)cc2)ccc1O |  |  |  |  | 
15 | 125 µM |  |  |  |  |  | O=C(O)c1cc(/C=C/c2cc(C(=O)O)c(O)c(-c3ccccc3)c2)ccc1O |  |  |  |  | 
